Source: patent US11407768B2, “AMPK activators” (Kallyope, Inc., priority 2020, dated 2022)
Counter-ions that a name gives are not always drawn.

Legend:
[1] = molecular target: Recombinant AMPK α1/β1/γ1 complex (Homo sapiens (Human), UniProt Q13131+Q9Y478); assay: In vitro pAMPK1 kinase activation assay (ADP-Glo, SAMS peptide); type: biochemical; conditions: AMPK α1/β1/γ1 pre-activated with CAMKK2; 12-point curve; 15 min compound incubation
Protocol: Compound effect on AMPK enzyme activation was determined in a cell-free format with a 12-point concentration curve. The ADP-Glo detection system was used to determine phosphorylation of a SAMS peptide substrate. Recombinant AMPK α1/β1/γ1 complex was pre-activated by phosphorylation with CAMKK2 followed by incubated with compound for 15 minutes prior to the SAMS phosphorylation reaction. Activity curves and EC50 values were fitted by interpolation to an ATP:ADP standard curve as indicated by the ADP-Glo manufacturer using Prism software.

[2] = Pharmacokinetics (oral bioavailability) in C57BL/6 mice; conditions: mouse, in vivo; for bioavailability: IV 1 mg/kg, PO 30 mg/kg; for Vd: following IV administration, 1 mg/kg, read-out: volume of distribution
Protocol: Selected compounds were tested for pharmacokinetics in C57BL/6 mice. Compounds 1, 4, 31, 32, 40, 55, 57 and 60 were dosed IV at 1 mg/kg as a formulation of 0.2 mg/mL in 5% DMSO+30% PEG400+65% water and were dosed PO at 30 mg/kg as a formulation of 3 mg/mL in 0.25% MC+5% Tween 80+0.02% SDS. Compound 2 was dosed IV at 1 mg/kg as a formulation of 0.2 mg/mL in 5% ethanol +95% saline and was dosed PO at 30 mg/kg as a formulation of 3 mg/mL in 0.25% MC+5% Tween 80+0.02% SDS.

[3] = system: Chemotherapy-induced Intestinal Injury Model; assay: Diarrhea in mouse chemotherapy-induced (5FU) intestinal injury model; type: in vivo, BALB/c mice; conditions: 5FU 400 mg/kg IP; for Diarrhea Score Day 5 / Diarrhea Score Day 6: score 0-3
Protocol: Compounds were formulated in vehicle (0.25% methyl cellulose, 5% Tween 80, 0.02% sodium dodecyl sulfate (SDS) in Hanks' Buffered Salt Solution with Ca' and Mg'). On day 1, either saline or a 400 mg/kg dose of 5-fluorouracil (5FU) in saline was administered by intraperitoneal injection to BALB/c mice. Starting on day 2, vehicle or compound was administered twice a day by oral gavage. From days 5 to 6 post-5FU, the animals were scored for diarrhea severity once a day. The diarrhea was scored 0-3 as follows: 0—normal consistency (black and solid), 1—soft (black and a bit lighter/yellow), 2—loosely shaped stool (yellowish and somewhat watery), 3—extreme diarrhea (very watery).

[4] = in vitro; conditions: human
Protocol: Caco-2 cells purchased from ATCC were seeded onto […] (PET) in 96-well BD Insert plates at 1×10^5 cells/cm^2, and refreshed medium every 4-5 days until to the 21st to 28th day for confluent cell monolayer formation. The transport buffer in the study was HBSS with 10 mM HEPES at pH 7.40±0.05. Test compounds were tested at 2 μM bi-directionally in duplicate. Digoxin was tested at 10 μM bi-directionally in duplicate, while nadolol and metoprolol were tested at 2 μM in A to B direction in duplicate. Final DMSO concentration was adjusted to less than 1%.
The plate was incubated for 2 hours in CO2 incubator at 37±1° C., with 5% CO2 at saturated humidity without shaking. All samples were mixed with acetonitrile containing internal standard and were centrifuged at 4000 rpm for 10 min. Subsequently, 100 μL supernatant solution was diluted with 100 μL distilled water for LC/MS/MS analysis. Concentrations of test and control compounds in starting solution, donor solution, and receiver solution were quantified by LC/MS/MS, using peak area ratio of analyte/internal standard.

[5] = Caco-2, pH 7.4, Mean Recovery A to B

Chain of Recombinant AMPK α1/β1/γ1 complex (Q13131 whole entry): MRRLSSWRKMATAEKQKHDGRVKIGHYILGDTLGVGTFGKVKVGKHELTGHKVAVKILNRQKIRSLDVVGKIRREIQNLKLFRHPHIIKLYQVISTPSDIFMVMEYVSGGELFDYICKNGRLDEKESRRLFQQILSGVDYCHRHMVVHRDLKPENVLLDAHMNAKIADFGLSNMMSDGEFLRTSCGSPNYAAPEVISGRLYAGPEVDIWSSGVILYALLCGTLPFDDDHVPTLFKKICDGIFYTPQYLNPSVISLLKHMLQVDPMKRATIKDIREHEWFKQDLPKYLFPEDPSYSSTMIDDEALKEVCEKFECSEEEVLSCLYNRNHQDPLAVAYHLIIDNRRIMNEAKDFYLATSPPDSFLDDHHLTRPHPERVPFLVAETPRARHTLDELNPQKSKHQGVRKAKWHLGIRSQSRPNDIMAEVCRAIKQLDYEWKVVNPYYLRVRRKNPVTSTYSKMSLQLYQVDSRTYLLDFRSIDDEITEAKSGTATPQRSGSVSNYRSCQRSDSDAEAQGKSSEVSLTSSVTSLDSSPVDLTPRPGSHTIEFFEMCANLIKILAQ
Chain of Recombinant AMPK α1/β1/γ1 complex (Q9Y478 whole entry): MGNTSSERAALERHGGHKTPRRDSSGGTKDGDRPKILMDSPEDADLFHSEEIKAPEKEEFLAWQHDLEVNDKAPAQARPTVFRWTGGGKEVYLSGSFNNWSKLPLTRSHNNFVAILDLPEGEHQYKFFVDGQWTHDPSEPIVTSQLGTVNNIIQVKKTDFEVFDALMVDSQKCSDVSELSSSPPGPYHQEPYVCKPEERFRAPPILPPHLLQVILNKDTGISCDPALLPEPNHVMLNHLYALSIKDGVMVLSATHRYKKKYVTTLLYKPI
Chain of Recombinant AMPK α1/β1/γ1 complex (P54619 whole entry partner): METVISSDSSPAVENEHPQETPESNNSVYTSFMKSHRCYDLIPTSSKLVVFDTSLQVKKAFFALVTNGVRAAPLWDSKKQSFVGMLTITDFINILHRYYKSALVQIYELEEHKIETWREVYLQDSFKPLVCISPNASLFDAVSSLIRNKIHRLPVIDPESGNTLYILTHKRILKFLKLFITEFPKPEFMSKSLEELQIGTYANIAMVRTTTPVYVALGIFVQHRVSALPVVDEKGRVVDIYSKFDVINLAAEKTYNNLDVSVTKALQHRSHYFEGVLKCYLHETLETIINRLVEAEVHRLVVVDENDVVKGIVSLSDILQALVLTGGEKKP

## CN1CCN(Cc2ccc(-c3ccc(-c4cc5nc(O[C@@H]6CO[C@H]7[C@@H]6OC[C@H]7O)[nH]c5cc4Cl)cc3)cc2)CC1 [Compound 57, (3R,3aR,6R,6aR)-6-((6-chloro-5-(4′-((4-methylpiperazin-1-yl)methyl)-[1,1′-biphenyl]-4-yl)-1H-benzo[d]imidazol-2-yl)oxy)hexahydrofuro[3,2-b]furan-3-ol]
[1]
  EC50: 0.89 nM
[2]
  bioavailability: < 10%
  Vd: < 5 L/kg

## OCC1CCN(Cc2ccc(-c3ccc(-c4cc5nc(O[C@@H]6CO[C@H]7[C@@H]6OC[C@H]7O)[nH]c5cc4Cl)cc3)cc2)CC1 [Compound 55, (3R,3aR,6R,6aR)-6-((6-chloro-5-(4′((4-(hydroxymethyl)piperidin-1-yl)methyl)-[1,1′-biphenyl]-4-yl)-1H-benzo[d]imidazol-2-yl)oxy)hexahydrofuro[3,2-b]furan-3-ol]
[1]
  EC50: 2.22 nM
[2]
  bioavailability: < 15%
  Vd: < 5 L/kg

## OCC(CO)NCc1ccc(-c2ccc(-c3cc4nc(O[C@@H]5CO[C@H]6[C@@H]5OC[C@H]6O)[nH]c4cc3Cl)cc2)cc1 [Compound 40, 2-(((4′-(6-chloro-2-(((3R,3aR,6R,6aR)-6-hydroxyhexahydrofuro[3,2-b]furan-3-yl)oxy)-1H-benzo[d]imidazol-5-yl)-[1,1′-biphenyl]-4-yl)methyl)amino)propane-1,3-diol]
[2]
  bioavailability: < 10%
  Vd: < 5 L/kg
[3]; 30 mpk BID oral
  Diarrhea Score Day 5, % Change vs. Vehicle: −66%
  Diarrhea Score Day 6, % Change vs. Vehicle: −59%
  Diarrhea Score Day 5: 0.38
  Diarrhea Score Day 6: 0.75

## OCCN1CCN(Cc2ccc(-c3ccc(-c4cc5nc(O[C@@H]6CO[C@H]7[C@@H]6OC[C@H]7O)[nH]c5cc4Cl)cc3)cc2)CC1 [Compound 56]
[1]
  EC50: 0.93 nM
[3]; 30 mpk BID oral
  Diarrhea Score Day 5, % Change vs. Vehicle: −71%
  Diarrhea Score Day 6, % Change vs. Vehicle: −77%
  Diarrhea Score Day 5: 0.38
  Diarrhea Score Day 6: 0.25

## COCCc1ccc(OCC(O)CNC(C)C)cc1 (stereo not shown) [Metoprolol, metoprolol, reference compound]
[4]; Caco-2, pH 7.4
  Papp A→B at 2 h, 2 μM: 16.4 ×10⁻⁶ cm/s
[4]; [5]
  recovery at 2 h, 2 μM: 90%

## OCCOCCNCc1ccc(-c2ccc(-c3cc4nc(O[C@@H]5CO[C@H]6[C@@H]5OC[C@H]6O)[nH]c4cc3Cl)cc2)cc1 [Compound 58, (3R,3aR,6R,6aR)-6-((6-chloro-5-(4′-(((2-(2-hydroxyethoxy)ethyl)amino)methyl)-[1,1′-biphenyl]-4-yl)-1H-benzo[d]imidazol-2-yl)oxy)hexahydrofuro[3,2-b]furan-3-ol]
[1]
  EC50: 0.93 nM
[3]; 30 mpk BID oral
  Diarrhea Score Day 5, % Change vs. Vehicle: −81%
  Diarrhea Score Day 6, % Change vs. Vehicle: −66%
  Diarrhea Score Day 5: 0.25
  Diarrhea Score Day 6: 0.38

## O=C(NCC[N+]12CCN(CC1)CC2)c1ccc(-c2ccc(-c3cc4nc(O[C@@H]5CO[C@H]6[C@@H]5OC[C@H]6O)[nH]c4cc3Cl)cc2)cc1 [Compound 32, 1-(2-(4′-(6-chloro-2-(((3R,3aR,6R,6aR)-6-hydroxyhexahydrofuro[3,2-b]furan-3-yl)oxy)-1H-benzo [d]imidazol-5-yl)-[1,1′-biphenyl]-4-carboxamido)ethyl)-1,4-diazabicyclo[2.2.2]octan-1-ium formate]
[2]
  bioavailability: < 1%
  Vd: < 1 L/kg
[3]; 20 mpk BID oral
  Diarrhea Score Day 5, % Change vs. Vehicle: −43%
  Diarrhea Score Day 6, % Change vs. Vehicle: −52%
  Diarrhea Score Day 5: 0.63
  Diarrhea Score Day 6: 0.88

## O=C(NCC(CS(=O)(=O)O)c1ccc(Cl)cc1)c1ccc(-c2ccc(-c3nc4nc(O[C@@H]5CO[C@H]6[C@@H]5OC[C@H]6O)[nH]c4cc3Cl)cc2)cc1 (stereo partly drawn) [Compound 7, 3-(4′-(6-chloro-2-(((3R,3aR,6R,6aR)-6-hydroxyhexahydrofuro[3,2-b]furan-3-yl)oxy)-1H-imidazo[4,5-b]pyridin-5-yl)-[1,1′-biphenyl]-4-carboxamido)-2-(4-chlorophenyl)propane-1-sulfonic acid]
[1]
  EC50: 1.22 nM

## C[C@H]1O[C@@H](O[C@H]2[C@@H](O)C[C@H](O[C@H]3[C@@H](O)C[C@H](O[C@H]4CC[C@@]5(C)[C@H](CC[C@@H]6[C@@H]5C[C@@H](O)[C@]5(C)[C@@H](C7=CC(=O)OC7)CC[C@]65O)C4)O[C@@H]3C)O[C@@H]2C)C[C@H](O)[C@@H]1O [Digoxin, reference compound]
[4]; Caco-2, pH 7.4
  Papp A→B at 2 h, 2 μM: < 0.03 ×10⁻⁶ cm/s
  Papp B→A at 2 h, 2 μM: 12.7 ×10⁻⁶ cm/s
[4]; Caco-2, pH 7.4, Efflux Ratio
  efflux ratio at 2 h, 2 μM: > 438
[4]; [5]
  recovery at 2 h, 2 μM: < 90.8%
[4]; Caco-2, pH 7.4, Mean Recovery B to A
  recovery at 2 h, 2 μM: 92.2%

## O=C(NCCCS(=O)(=O)O)c1ccc(-c2ccc(-c3nc4nc(O[C@@H]5CO[C@H]6[C@@H]5OC[C@H]6O)[nH]c4cc3Cl)cc2)cc1 [Compound 6, 3-(4′-(6-chloro-2-(((3R,3aR,6R,6aR)-6-hydroxyhexahydrofuro[3,2-b]furan-3-yl)oxy)-1H-imidazo[4,5-b]pyridin-5-yl)-[1,1′-biphenyl]-4-carboxamido)propane-1-sulfonic acid]
[1]
  EC50: 0.62 nM

## O=P(O)(O)c1ccc(-c2ccc(-c3nc4nc(O[C@H]5CO[C@H](CO)[C@H]5O)[nH]c4cc3Cl)cc2)cc1 [Compound 45, (4′-(6-chloro-2-(((3S,4R,5R)-4-hydroxy-5-(hydroxymethyl)tetrahydrofuran-3-yl)oxy)-1H-imidazo[4,5-b]pyridin-5-yl)-[1,1′-biphenyl]-4-yl)phosphonic acid]
[1]
  EC50: > 10000 nM

## O[C@@H]1CO[C@H]2[C@@H]1OC[C@H]2Oc1nc2cc(-c3ccc(-c4ccc(CN5C[C@@H](O)[C@@H](O)C5)cc4)cc3)c(Cl)cc2[nH]1 [Compound 61, (3S,4R)-1-((4′-(6-chloro-2-(((3R,3aR,6R,6aR)-6-hydroxyhexahydrofuro[3,2-b]furan-3-yl)oxy)-1H-benzo[d]imidazol-5-yl)-[1,1′-biphenyl]-4-yl)methyl)pyrrolidine-3,4-diol]
[1]
  EC50: 1.36 nM

## O[C@@H]1CCN(Cc2ccc(-c3ccc(-c4cc5nc(O[C@@H]6CO[C@H]7[C@@H]6OC[C@H]7O)[nH]c5cc4Cl)cc3)cc2)C1 [Compound 59, (R)-1-((4′-(6-chloro-2-(((3R,3aR,6R,6aR)-6-hydroxyhexahydrofuro[3,2-b]furan-3-yl)oxy)-1H-benzo[d]imidazol-5-yl)-[1,1′-biphenyl]-4-yl)methyl)pyrrolidin-3-ol]
[1]
  EC50: 1.04 nM

## OCC1(CO)CN(Cc2ccc(-c3ccc(-c4nc5nc(O[C@@H]6CO[C@H]7[C@@H]6OC[C@H]7O)[nH]c5cc4Cl)cc3)cc2)C1 [Compound 52, (1-((4′-(6-chloro-2-(((3R,3aR,6R,6aR)-6-hydroxyhexahydrofuro[3,2-b]furan-3-yl)oxy)-1H-imidazo[4,5-b]pyridin-5-yl)-[1,1′-biphenyl]-4-yl)methyl)azetidine-3,3-diyl)dimethanol]
[1]
  EC50: 0.81 nM

## OCC(CO)(CO)NCc1ccc(-c2ccc(-c3nc4nc(O[C@@H]5CO[C@H]6[C@@H]5OC[C@H]6O)[nH]c4cc3Cl)cc2)cc1 [Compound 53, 2-(((4′-(6-chloro-2-(((3R,3aR,6R,6aR)-6-hydroxyhexahydrofuro[3,2-b]furan-3-yl)oxy)-1H-imidazo[4,5-b]pyridin-5-yl)-[1,1′-biphenyl]-4-yl)methyl)amino)-2-(hydroxymethyl)propane-1,3-diol]
[1]
  EC50: 0.23 nM

## OCCOCCNCc1ccc(-c2ccc(-c3cc4nc(O[C@@H]5CO[C@H]6[C@@H]5OC[C@H]6O)[nH]c4cc3Cl)cc2)c(O)c1 [Compound 74]
[1]
  EC50: 0.15 nM
